From the PolyMetriX glass transition set come the findings set out here.

Structures are written as SMILES.

Consider `*C/C(C)=C/C(C)S(*)(=O)=O` (repeat unit), for which the glass transition temperature was determined as 83.00 °C. Then `*C1CCC(CC2CCC(N3C(=O)c4ccc(-c5ccc6c(c5)C(=O)N(*)C6=O)cc4C3=O)CC2)CC1` (repeat unit), with 242.00 °C; and `*CC1CC2CC1C1CCC(CN3C(=O)c4ccc(-c5ccc6c(c5)C(=O)N(*)C6=O)cc4C3=O)C21` (repeat unit), with 230.00 °C; and `*CC1CCCC(CN2C(=O)c3ccc(C(c4ccc5c(c4)C(=O)N(*)C5=O)(C(F)(F)F)C(F)(F)F)cc3C2=O)C1` (repeat unit), with 222.00 °C. Then `*CCCCCCCCCCCCN1C(=O)c2ccc(C(c3ccc4c(c3)C(=O)N(CCCCCCCCCCCCN3C(=O)c5ccc6c7ccc8c9c(ccc(c%10ccc(c5c6%10)C3=O)c97)C(=O)N(*)C8=O)C4=O)(C(F)(F)F)C(F)(F)F)cc2C1=O` (repeat unit), with 170.00 °C; and `*CCCc1nc2cc(-c3ccc4[nH]c(*)nc4c3)ccc2[nH]1` (repeat unit), with 275.00 °C; and `*CCN(CCN1C(=O)c2ccc(C(c3ccc4c(c3)C(=O)N(*)C4=O)(C(F)(F)F)C(F)(F)F)cc2C1=O)c1ccc(/N=N/c2ccc(C3OCCO3)cc2)cc1` (repeat unit), with 178.00 °C. On to `*CN1C(=O)c2ccc(C(c3ccc4c(c3)C(=O)N(Cc3nc5cc(-c6ccc7oc(*)nc7c6)ccc5o3)C4=O)(C(F)(F)F)C(F)(F)F)cc2C1=O` (repeat unit), for which the glass transition temperature was 231.00 °C. The value for `*CN1C(=O)c2ccc(C(c3ccc4c(c3)C(=O)N(Cc3nnc(-c5ccc(-c6nnc(*)o6)c(Oc6ccccc6)c5)o3)C4=O)(C(F)(F)F)C(F)(F)F)cc2C1=O` (repeat unit) was 208.00 °C; that for `*CN1C(=O)c2ccc(C(c3ccc4c(c3)C(=O)N(Cc3nnc(-c5ccc(-c6nnc(*)o6)cc5)o3)C4=O)(C(F)(F)F)C(F)(F)F)cc2C1=O` (repeat unit) was 214.00 °C. The value for `*CN1C(=O)c2ccc(C(c3ccc4c(c3)C(=O)N(Cc3nnc(-c5ccc(Oc6ccc(-c7nnc(*)o7)cc6)cc5)o3)C4=O)(C(F)(F)F)C(F)(F)F)cc2C1=O` (repeat unit) was 210.00 °C; that for `*Oc1ccc(C(=O)c2cccc(C(=O)c3ccc(Oc4ccc(Cc5ccc(*)cc5)cc4)cc3)c2)cc1` (repeat unit) was 145.00 °C; that for `*Oc1ccc(C(C)(C)c2ccc(Oc3nc(*)nc(Cl)n3)cc2)cc1` (repeat unit) was 80.00 °C.

`*Oc1ccc(C(c2ccc(Oc3ccc(C(=O)c4cccc(C(=O)c5ccc(*)cc5)c4)cc3)cc2)(C(F)(F)F)C(F)(F)F)cc1` (repeat unit) had a glass transition temperature of 168.10 °C. Turning to `*Oc1ccc(C2(c3ccc(Oc4ccc(C(=O)c5cccc(C(=O)c6ccc(*)cc6)c5)cc4)cc3)c3ccccc3-c3ccccc32)cc1` (repeat unit), the glass transition temperature stood at 223.00 °C. The value for `*Oc1ccc(C2(c3ccc(Oc4ccc5c(=O)n6c7cc(-c8ccc9c(c8)nc8c%10ccc(*)c%11cccc(c(=O)n98)c%11%10)ccc7nc6c6cccc4c56)cc3)c3ccccc3C(=O)c3ccccc32)cc1` (repeat unit) was 428.00 °C; that for `*c1cc(Br)c(Oc2c(Br)cc(N3C(=O)c4ccc(S(=O)(=O)c5ccc6c(c5)C(=O)N(*)C6=O)cc4C3=O)cc2Br)c(Br)c1` (repeat unit) was 328.00 °C. The value for `*c1ccc(*)c(C(=O)c2ccccc2)c1` (repeat unit) was 180.00 °C. `*c1ccc(C2(c3ccc(N4C(=O)c5ccc(S(=O)(=O)c6ccc7c(c6)C(=O)N(*)C7=O)cc5C4=O)cc3)c3ccccc3-c3ccccc32)cc1` (repeat unit) displayed a glass transition temperature of 392.00 °C.

Consider `*c1ccc(Cc2ccc(N3C(=O)c4ccc([Si](C)(C)c5ccc([Si](C)(C)c6ccc7c(c6)C(=O)N(*)C7=O)cc5)cc4C3=O)cc2)cc1` (repeat unit), for which the glass transition temperature was determined as 295.00 °C. Compound `*c1ccc(N2C(=O)c3ccc(-c4ccc5c(c4)C(=O)N(*)C5=O)cc3C2=O)cc1` (repeat unit) returned a glass transition temperature of 341.00 °C. Then `*c1ccc(N2C(=O)c3ccc(P(=O)(c4ccccc4)c4ccc5c(c4)C(=O)N(*)C5=O)cc3C2=O)cc1` (repeat unit), with 366.00 °C; and `*c1ccc(OCCCCCCCCCCOc2ccc(N3C(=O)c4ccc(-c5ccc6c(c5)C(=O)N(*)C6=O)cc4C3=O)cc2)cc1` (repeat unit), with 153.00 °C.

Compound `*c1ccc(Oc2ccc(C(=O)c3cccc(C(=O)c4ccc(Oc5ccc(-n6c(=O)c7cc8c(=O)n(*)c(=O)c8cc7c6=O)cc5)cc4)c3)cc2)cc1` (repeat unit) showed a glass transition temperature of 247.00 °C. As to `*c1ccc(Oc2ccc(C(=O)c3cccc(C(=O)c4ccc(Oc5ccc(-n6c(=O)c7cc8c(=O)n(*)c(=O)c8cc7c6=O)cc5)cc4)n3)cc2)cc1` (repeat unit), the glass transition temperature was determined as 324.60 °C. `*c1ccc(Oc2ccc(N3C(=O)c4cccc(Oc5ccc(C(C)(C)c6ccc(Oc7cccc8c7C(=O)N(*)C8=O)cc6)cc5)c4C3=O)cc2)cc1` (repeat unit): the glass transition temperature was determined as 235.00 °C.

In turn, `*c1ccc(Oc2ccc3ccc(Oc4ccc(-c5nc(*)nc(-c6ccccc6)n5)cc4)cc3c2)cc1` (repeat unit) gave a glass transition temperature of 255.00 °C. Then `*c1ccc(Oc2ccc3ccc(Oc4ccc(N5C(=O)CC(=O)N(*)C5=S)cc4)cc3c2)cc1` (repeat unit), with 151.50 °C; and `*c1ccc(Oc2cccc(Oc3ccc(N4C(=O)CC(=O)N(*)C4=S)cc3)c2)cc1` (repeat unit), with 145.00 °C; and `*c1ccc(Oc2ccccc2Oc2ccc(-n3c(=O)c4cc5c(=O)n(*)c(=O)c5cc4c3=O)cc2)cc1` (repeat unit), with 313.00 °C.

`*c1ccc(S(*)(=O)=O)cc1` (repeat unit) gave a glass transition temperature of 219.50 °C.

Compound `*c1ccc(Sc2ccc(-c3nn(-c4ccc(S(=O)(=O)c5ccc(-n6nc(*)c7ccccc7c6=O)cc5)cc4)c(=O)c4ccccc34)cc2)cc1` (repeat unit) registered a glass transition temperature of 279.00 °C. The value for `*c1ccc(Sc2cccc(Sc3ccc(S(*)=O)cc3)c2)cc1` (repeat unit) was 121.00 °C; that for `*c1ccc([Si](CCCC)(CCCC)[Si](*)(CCCC)CCCC)s1` (repeat unit) was -53.00 °C; that for `*c1ccc([Si](c2ccccc2)(c2ccccc2)c2ccc(-c3ccc4c(c3)c3cc(*)ccc3n4CCCCCC#N)cc2)cc1` (repeat unit) was 165.00 °C. The value for `*c1ccc2[nH]c(*)nc2c1` (repeat unit) was 398.00 °C. The value for `*c1ccc2c(c1)C(=O)N(C1CCC(N3C(=O)c4ccc(C(*)(C(F)(F)F)C(F)(F)F)cc4C3=O)CC1)C2=O` (repeat unit) was 346.50 °C.

`*c1ccc2c(c1)C(=O)N(c1cc(Br)c(Oc3c(Br)cc(N4C(=O)c5ccc(C(*)(C(F)(F)F)C(F)(F)F)cc5C4=O)cc3Br)c(Br)c1)C2=O` (repeat unit): the glass transition temperature came out at 303.00 °C. On to `*c1ccc2c(c1)C(=O)N(c1cc(C(c3ccc(OC(=O)C45CC6CC(CC(C6)C4)C5)c(N4C(=O)c5ccc(C(*)(C(F)(F)F)C(F)(F)F)cc5C4=O)c3)(C(F)(F)F)C(F)(F)F)ccc1OC(=O)C13CC4CC(CC(C4)C1)C3)C2=O` (repeat unit), for which the glass transition temperature came to 305.00 °C. In turn, `*c1ccc2c(c1)C(=O)N(c1ccc(-c3ccc(N4C(=O)c5ccc(C(*)(c6ccccc6)C(F)(F)F)cc5C4=O)cc3C(F)(F)F)c(C(F)(F)F)c1)C2=O` (repeat unit) returned a glass transition temperature of 280.00 °C. Then `*c1ccc2c(c1)C(=O)N(c1ccc(Cc3ccc(N4C(=O)c5ccc(C(F)(F)C(F)(F)C(*)(F)F)cc5C4=O)cc3)cc1)C2=O` (repeat unit), with 290.00 °C; and `*c1ccc2c(c1)C(=O)N(c1ccc(N3C(=O)c4ccc(-c5c(-c6ccccc6)c(-c6ccccc6)c(-c6ccc(Sc7ccc(-c8c(-c9ccccc9)c(-c9ccccc9)c(*)c(-c9ccccc9)c8-c8ccccc8)cc7)cc6)c(-c6ccccc6)c5-c5ccccc5)cc4C3=O)cc1)C2=O` (repeat unit), with 344.00 °C. In turn, `*c1ccc2c(c1)C(=O)N(c1ccc(NC(=O)C(F)(F)C(F)(F)C(F)(F)C(F)(F)C(=O)Nc3ccc(N4C(=O)c5ccc(C(*)(C(F)(F)F)C(F)(F)F)cc5C4=O)cc3)cc1)C2=O` (repeat unit) yielded a glass transition temperature of 285.00 °C.

Consider `*c1ccc2c(c1)C(=O)N(c1ccc(NC(=S)/N=C/c3ccc(Cl)c(N4C(=O)c5ccc(C(*)(C(F)(F)F)C(F)(F)F)cc5C4=O)c3)cc1)C2=O` (repeat unit), for which the glass transition temperature came out at 272.00 °C. In turn, `*c1ccc2c(c1)C(=O)N(c1ccc(OCCCCCCCCCCOc3ccc(N4C(=O)c5ccc(C(*)(C(F)(F)F)C(F)(F)F)cc5C4=O)cc3)cc1)C2=O` (repeat unit) returned a glass transition temperature of 143.00 °C.

`*c1ccc2c(c1)C(=O)N(c1ccc(OCCCCCCOc3ccc(N4C(=O)c5ccc(C(*)(C(F)(F)F)C(F)(F)F)cc5C4=O)cc3)cc1)C2=O` (repeat unit) registered a glass transition temperature of 167.00 °C.

`*c1ccc2c(c1)C(=O)N(c1ccc(OCCCCOc3ccc(N4C(=O)c5ccc(C(*)(C(F)(F)F)C(F)(F)F)cc5C4=O)cc3)cc1)C2=O` (repeat unit) yielded a glass transition temperature of 169.00 °C.

As for `*c1ccc2c(c1)C(=O)N(c1ccc(Oc3ccc(C(=O)c4cccc(C(=O)c5ccc(Oc6ccc(N7C(=O)c8ccc(C(*)(C(F)(F)F)C(F)(F)F)cc8C7=O)cc6)cc5)n4)cc3)cc1)C2=O` (repeat unit), the glass transition temperature came to 226.90 °C.

`*c1cccc(Cc2cccc(N3C(=O)c4ccc([Si](C)(C)c5ccc([Si](C)(C)c6ccc7c(c6)C(=O)N(*)C7=O)cc5)cc4C3=O)c2)c1` (repeat unit): the glass transition temperature was determined as 246.00 °C. `*c1cccc(P(C)(=O)c2cccc(N3C(=O)c4ccc(Oc5ccc(C(C)(C)c6ccc(Oc7ccc8c(c7)C(=O)N(*)C8=O)cc6)cc5)cc4C3=O)c2)c1` (repeat unit) gave a glass transition temperature of 228.00 °C.
